Calls of active or inactive are those of the source. No cut-off for these calls is given here.
Key:
[1] = Selectivity index, ratio of IC50 for inhibition of recombinant PI3Kalpha (unknown origin) using PIP2:3PS as substrate to IC50 for inhibition of recombinant PI3Kdelta (unknown origin) using PIP2:3PS as substrate
SU-DHL-6 [2] = experiment: Irreversible inhibition of AKT phosphorylation in human SU-DHL-6 cells preincubated for 12 hrs followed by compound washout and measured upto 72 hrs by Western blot analysis; type: cell-based
SU-DHL-6 [3] = experiment: Irreversible inhibition of AKT phosphorylation in human SU-DHL-6 cells preincubated for 12 hrs followed by compound washout and measured after 24 hrs by Western blot analysis; type: cell-based
SU-DHL-6 [4] = experiment: Antitumor activity against human SU-DHL-6 cells xenografted in male nude mouse assessed as reduction in Ki67 expression in tumor at 5 to 30 mg/kg/day, po administered for 14 days by immunohistochemical staining based analysis; type: functional, organism-based; details: dose 5-30 mg/kg/day, time 14.0 day
SU-DHL-6 [5] = experiment: Antitumor activity against human SU-DHL-6 cells xenografted in male nude mouse assessed as tumor growth inhibition at 30 mg/kg/day, po administered for 14 days relative to control; type: functional; details: SU-DHL-6, 336 h, time 14 day, read-out: TGI
[6] = target: T1, Phosphatidylinositol 4,5-bisphosphate 3-kinase catalytic subunit delta isoform (Homo sapiens) (UniProt O00329); experiment: Covalent inhibition of PI3Kdelta (unknown origin) using PIP2:3PS as substrate assessed as second order rate constant (Kinact/Ki ratio) incubated upto 180 mins in presence of ATP by ADP-Glo reagent based assay
T1 sequence (whole entry): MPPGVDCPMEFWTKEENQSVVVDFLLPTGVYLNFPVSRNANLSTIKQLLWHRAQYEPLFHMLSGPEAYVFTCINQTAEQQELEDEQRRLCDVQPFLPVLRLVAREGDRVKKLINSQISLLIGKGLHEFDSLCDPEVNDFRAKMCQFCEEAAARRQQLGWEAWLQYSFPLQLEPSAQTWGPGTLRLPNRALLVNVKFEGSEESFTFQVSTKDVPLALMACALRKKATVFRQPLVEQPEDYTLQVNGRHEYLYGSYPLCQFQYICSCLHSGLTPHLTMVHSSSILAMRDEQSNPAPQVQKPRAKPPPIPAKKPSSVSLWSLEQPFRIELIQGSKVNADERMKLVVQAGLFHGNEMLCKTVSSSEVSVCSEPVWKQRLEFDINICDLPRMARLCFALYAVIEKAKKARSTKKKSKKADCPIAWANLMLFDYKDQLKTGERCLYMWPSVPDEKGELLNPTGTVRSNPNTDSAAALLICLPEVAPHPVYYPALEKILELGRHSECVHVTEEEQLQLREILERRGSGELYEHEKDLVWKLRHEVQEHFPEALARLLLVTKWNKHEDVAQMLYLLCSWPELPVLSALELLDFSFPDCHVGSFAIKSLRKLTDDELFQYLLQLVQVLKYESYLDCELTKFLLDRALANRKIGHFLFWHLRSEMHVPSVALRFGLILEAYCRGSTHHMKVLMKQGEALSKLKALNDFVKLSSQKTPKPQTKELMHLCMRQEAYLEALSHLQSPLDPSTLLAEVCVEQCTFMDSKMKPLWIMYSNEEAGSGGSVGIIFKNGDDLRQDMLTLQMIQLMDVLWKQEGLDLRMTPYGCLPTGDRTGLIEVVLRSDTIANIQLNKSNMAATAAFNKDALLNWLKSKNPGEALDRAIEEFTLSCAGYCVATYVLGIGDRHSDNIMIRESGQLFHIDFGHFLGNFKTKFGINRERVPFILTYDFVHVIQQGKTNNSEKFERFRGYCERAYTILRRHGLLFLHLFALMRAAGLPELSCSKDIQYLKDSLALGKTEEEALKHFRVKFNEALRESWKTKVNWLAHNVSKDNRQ

Mus musculus = experiment: In vivo inhibition of PI3K signaling pathway in male nude mouse xenografted with human SU-DHL-6 cells assessed as reduction in AKT phosphorylation in tumor at 5 to 30 mg/kg/day, po administered for 14 days by Western blot analysis; type: functional, organism-based; details: dose 5-30 mg/kg/day, time 14.0 day
HCT-116 = experiment: Growth inhibition of human HCT-116 cells incubated for 72 hrs by MTT assay; type: functional
SU-DHL-6 [7] = experiment: Induction of apoptosis in human SU-DHL-6 cells assessed as necrotic cells at 0.01 uM incubated for 48 hrs by Annexin V-FITC/PI staining based flow cytometric analysis (reference value: 1.05 %); type: functional
Raji = experiment: Growth inhibition of human Raji cells incubated for 72 hrs by MTT assay; type: functional
SU-DHL-6 [8] = experiment: Induction of cell cycle arrest in human SU-DHL-6 cells assessed as increase in G0/G1 phase cells incubated for 24 hrs by PI staining based flow cytometric analysis; type: functional; details: dose 1-100 nM
SU-DHL-6 [9] = experiment: Induction of apoptosis in human SU-DHL-6 cells assessed as early apoptotic cells at 1 uM incubated for 48 hrs by Annexin V-FITC/PI staining based flow cytometric analysis (reference value: 5.02 %); type: functional
SU-DHL-6 [10] = experiment: Potency index, ratio of idelalisib GI50 to test compound GI50 for growth inhibition of PI3Kdelta-overexpressing human SU-DHL-6 cells incubated for 72 hrs by MTT assay; type: functional
[11] = target: T2, Phosphatidylinositol 4,5-bisphosphate 3-kinase catalytic subunit delta isoform (Homo sapiens, UniProt O00329); experiment: Covalent inhibition of PI3Kdelta (unknown origin) using PIP2:3PS as substrate assessed as inhibition constant incubated upto 180 mins in presence of ATP by ADP-Glo reagent based assay
T2 sequence (O00329 whole entry): T1 sequence (whole entry)

[12] = Growth inhibition of PI3Kdelta-overexpressing human Pfeiffer cells incubated for 72 hrs by MTT assay; type: functional
SU-DHL-6 [13] = experiment: Induction of apoptosis in human SU-DHL-6 cells assessed as early apoptotic cells at 0.1 uM incubated for 48 hrs by Annexin V-FITC/PI staining based flow cytometric analysis (reference value: 5.02 %); type: functional
[14] = target: Phosphatidylinositol 4,5-bisphosphate 3-kinase catalytic subunit beta isoform (Homo sapiens, UniProt P42338); experiment: Inhibition of recombinant PI3Kbeta (unknown origin) using PIP2:3PS as substrate preincubated for 20 mins followed by ATP addition and measured after 1 hrs by ADP-Glo reagent based assay
Chain of Phosphatidylinositol 4,5-bisphosphate 3-kinase catalytic subunit beta isoform (P42338 whole entry, canonical isoform): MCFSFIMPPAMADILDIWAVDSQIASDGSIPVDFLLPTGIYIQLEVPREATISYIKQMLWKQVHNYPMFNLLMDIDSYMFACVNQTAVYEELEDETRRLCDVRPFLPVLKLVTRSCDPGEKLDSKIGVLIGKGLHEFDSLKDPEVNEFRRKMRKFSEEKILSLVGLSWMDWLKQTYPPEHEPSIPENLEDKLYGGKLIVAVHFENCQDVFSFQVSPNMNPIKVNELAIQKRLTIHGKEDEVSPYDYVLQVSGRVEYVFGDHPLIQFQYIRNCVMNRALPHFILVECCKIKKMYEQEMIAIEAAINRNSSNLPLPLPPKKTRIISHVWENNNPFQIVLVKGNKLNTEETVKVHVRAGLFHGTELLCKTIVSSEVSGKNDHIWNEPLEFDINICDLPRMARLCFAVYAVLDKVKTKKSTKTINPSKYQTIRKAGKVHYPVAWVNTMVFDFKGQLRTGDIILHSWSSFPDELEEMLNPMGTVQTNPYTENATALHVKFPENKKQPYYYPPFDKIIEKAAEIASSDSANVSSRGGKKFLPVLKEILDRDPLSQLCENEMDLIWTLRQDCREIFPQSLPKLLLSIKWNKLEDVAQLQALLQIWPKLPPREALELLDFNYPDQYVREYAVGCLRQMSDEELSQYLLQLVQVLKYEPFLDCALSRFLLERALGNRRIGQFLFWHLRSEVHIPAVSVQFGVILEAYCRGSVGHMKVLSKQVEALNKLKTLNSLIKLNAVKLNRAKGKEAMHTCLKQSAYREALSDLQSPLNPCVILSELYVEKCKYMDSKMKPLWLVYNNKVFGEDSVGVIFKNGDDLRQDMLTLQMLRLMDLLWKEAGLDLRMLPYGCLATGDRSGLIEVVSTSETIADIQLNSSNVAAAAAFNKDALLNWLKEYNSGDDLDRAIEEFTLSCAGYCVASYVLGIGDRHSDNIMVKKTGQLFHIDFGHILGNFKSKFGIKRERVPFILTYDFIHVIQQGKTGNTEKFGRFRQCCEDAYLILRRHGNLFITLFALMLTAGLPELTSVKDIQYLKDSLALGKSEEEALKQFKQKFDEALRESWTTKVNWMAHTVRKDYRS

[15] = Stability of compound in PBS at pH 7.4 incubated for 24 hrs at 37 degreeC by HPLC analysis; type: physicochemical; details: buffer, pH 7.4, 24 h
[16] = target: T1, Phosphatidylinositol 4,5-bisphosphate 3-kinase catalytic subunit delta isoform (Homo sapiens); experiment: Binding affinity to PI3Kdelta in human SU-DHL-6 cells preincubated for 1 hrs followed by (S)-phenyl 5-(4-((1-(1-(3-azidopropanoyl)piperidine-4-carbonyl)pyrrolidin-3-yl)amino)pyrido[3,2-d]pyrimidin-6-yl)-2-methoxynicotinate addition and measured after 2 hrs by DBCO-Cy3 based SDS-PAGE analysis; type: cell-based; details: time 3.0 hrs
[17] = target: T1, Phosphatidylinositol 4,5-bisphosphate 3-kinase catalytic subunit delta isoform (Homo sapiens); experiment: Covalent inhibition of PI3Kdelta (unknown origin) using PIP2:3PS as substrate assessed as rate constant for irreversible inactivation (Kinact) incubated upto 180 mins in presence of ATP by ADP-Glo reagent based assay
[18] = Chemical reactivity of the compound with N-Boc-Lysine assessed as half-life at 1 uM by HPLC analysis; type: physicochemical; details: incubation with N-Boc-Lysine
SU-DHL-6 [19] = experiment: Inhibition of AKT phosphorylation in human SU-DHL-6 cells incubated for 24 hrs by Western blot analysis; type: cell-based; details: dose 10-1000 nM

Ratio IC50 [1]: > 1000
Ratio [6]: 1.76 10^5/M/s
GI50 (HCT-116): 1350 nM
GI50 (Raji): 5390 nM
Ki [11]: 1.85 nM
IC50 [14]: 203 nM
Stability [15]: Stable
Activity [16]: Active
Kinact [17]: 0.02 min⁻¹
half-life at 1 µM [18]: 2.82 h
Structure (SMILES): COc1ncc(-c2ccc3ncnc(N[C@H]4CCN(C(=O)C5CCOCC5)C4)c3n2)cc1C(=O)Oc1ccccc1
inhibition (SU-DHL-6 [2]): Active
inhibition (SU-DHL-6 [3]): Active
Activity (SU-DHL-6 [4]): Active
inhibition in vivo at 30 mg/kg/day (SU-DHL-6 [5]): 95%
inhibition (Mus musculus): Active
Activity (SU-DHL-6 [7]): 0.52%
Activity (SU-DHL-6 [8]): Dose-Dependent Effect
Activity (SU-DHL-6 [9]): 63.74%
RatioGI50 (SU-DHL-6 [10]): ~10
GI50 [12]: 102 nM
Activity (SU-DHL-6 [13]): 17.68%
inhibition (SU-DHL-6 [19]): Dose-Dependent Effect

From ChEMBL document CHEMBL6127139, “Lysine-Targeted Covalent Inhibitors of PI3Kδ Synthesis and Screening by In Situ Interaction Upgradation” (J Med Chem, 2024)
